Measurements published in ChEMBL document CHEMBL3885861, “Open TG-GATES”.

Species: Rattus norvegicus
Assay: Open TG-GATES - Regimen: Single
Assay type: toxicity, organism-based, Sprague-Dawley
Set-up: regimen Single, gender Male, age 6 weeks
Conditions: in vivo, po, 0 mg/kg, route gavage, dose level Control; for APTT / Bas / Eos / Fbg / Hb / Ht / Lym / MCH / MCHC / MCV / Mono / Neu / PT / Plat / RBC / Ret / WBC: tissue Blood; for KIDNEY_L / KIDNEY_R / KIDNEY_TOTAL: tissue Kidney; for LIVER: tissue Liver; for A/G / ALP / ALT / AST / BUN / CRE / Ca / Cl / DBIL / GLC / IP / K / LDH / Na / PL / RALB / TBIL / TC / TG / TP / gamma-GTP: tissue Plasma

Nc1nc(N)c2nc(-c3ccccc3)c(N)nc2n1
TERMINAL_BW (3 h): 212 g | APTT (3 h): 16.9 s | Bas (3 h): 0% | Eos (3 h): 1% | Fbg (3 h): 287.4 mg/dL | Hb (3 h): 13.9 g/dL | Ht (3 h): 42% | Lym (3 h): 79.2% | MCH (3 h): 21.4 pg | MCHC (3 h): 33% | MCV (3 h): 64.6 fL | Mono (3 h): 3.2% | Neu (3 h): 16% | PT (3 h): 14.2 s | Plat (3 h): 114.1 x10_4/uL | RBC (3 h): 651 x10_4/ul | Ret (3 h): 7.4% | WBC (3 h): 92.6 x10_2/uL | KIDNEY_L (3 h): 1 g | KIDNEY_R (3 h): 1 g | KIDNEY_TOTAL (3 h): 1.9 g | LIVER (3 h): 9.3 g | A/G (3 h): 1 | ALP (3 h): 1479.4 IU/L | ALT (3 h): 44.2 IU/L | AST (3 h): 76.6 IU/L | BUN (3 h): 9.4 mg/dL | CRE (3 h): 0.2 mg/dL | Ca (3 h): 11 mg/dL | Cl (3 h): 105.2 meq/L | DBIL (3 h): 0.008 mg/dL | GLC (3 h): 173.4 mg/dL | IP (3 h): 9.2 mg/dL | K (3 h): 3.9 meq/L | LDH (3 h): 58.4 IU/L | Na (3 h): 143.2 meq/L | PL (3 h): 143.4 mg/dL | RALB (3 h): 2.6 g/dL | TBIL (3 h): 0.06 mg/dL | TC (3 h): 79.6 mg/dL | TG (3 h): 50.8 mg/dL | TP (3 h): 5.3 g/dL | gamma-GTP (3 h): 1 IU/L | TERMINAL_BW (6 h): 211.8 g | APTT (6 h): 16.8 s | Bas (6 h): 0% | Eos (6 h): 0.4% | Fbg (6 h): 302.8 mg/dL | Hb (6 h): 13.9 g/dL | Ht (6 h): 42.3% | Lym (6 h): 77.2% | MCH (6 h): 21.3 pg | MCHC (6 h): 32.9% | MCV (6 h): 64.8 fL | Mono (6 h): 2.6% | Neu (6 h): 19% | PT (6 h): 14 s | Plat (6 h): 123.2 x10_4/uL | RBC (6 h): 653.2 x10_4/ul | Ret (6 h): 7.4% | WBC (6 h): 93.6 x10_2/uL | KIDNEY_L (6 h): 1 g | KIDNEY_R (6 h): 1 g | KIDNEY_TOTAL (6 h): 1.9 g | LIVER (6 h): 9.6 g | A/G (6 h): 0.9 | ALP (6 h): 1424.2 IU/L | ALT (6 h): 34.6 IU/L | AST (6 h): 69.2 IU/L | BUN (6 h): 9.6 mg/dL | CRE (6 h): 0.2 mg/dL | Ca (6 h): 10.8 mg/dL | Cl (6 h): 104.6 meq/L | DBIL (6 h): 0.012 mg/dL | GLC (6 h): 179.2 mg/dL | IP (6 h): 9.7 mg/dL | K (6 h): 4.2 meq/L | LDH (6 h): 57.2 IU/L | Na (6 h): 142.8 meq/L | PL (6 h): 146.8 mg/dL | RALB (6 h): 2.6 g/dL | TBIL (6 h): 0.066 mg/dL | TC (6 h): 77.8 mg/dL | TG (6 h): 84 mg/dL | TP (6 h): 5.3 g/dL | gamma-GTP (6 h): 1.2 IU/L | TERMINAL_BW (9 h): 210.8 g | APTT (9 h): 16.3 s | Bas (9 h): 0.2% | Eos (9 h): 1% | Fbg (9 h): 304.2 mg/dL | Hb (9 h): 13.6 g/dL | Ht (9 h): 41.1% | Lym (9 h): 73% | MCH (9 h): 20.5 pg | MCHC (9 h): 33% | MCV (9 h): 62.2 fL | Mono (9 h): 2% | Neu (9 h): 23.2% | PT (9 h): 14 s | Plat (9 h): 119.1 x10_4/uL | RBC (9 h): 661.2 x10_4/ul | Ret (9 h): 7.1% | WBC (9 h): 83.6 x10_2/uL | KIDNEY_L (9 h): 1 g | KIDNEY_R (9 h): 1 g | KIDNEY_TOTAL (9 h): 1.9 g | LIVER (9 h): 8.5 g | A/G (9 h): 1 | ALP (9 h): 1497.4 IU/L | ALT (9 h): 36.6 IU/L | AST (9 h): 68 IU/L | BUN (9 h): 10 mg/dL | CRE (9 h): 0.2 mg/dL | Ca (9 h): 10.6 mg/dL | Cl (9 h): 106 meq/L | DBIL (9 h): 0.008 mg/dL | GLC (9 h): 173.8 mg/dL | IP (9 h): 9.4 mg/dL | K (9 h): 3.9 meq/L | LDH (9 h): 53.2 IU/L | Na (9 h): 143.6 meq/L | PL (9 h): 132.6 mg/dL | RALB (9 h): 2.5 g/dL | TBIL (9 h): 0.058 mg/dL | TC (9 h): 74 mg/dL | TG (9 h): 41.4 mg/dL | TP (9 h): 5.2 g/dL | gamma-GTP (9 h): 1.4 IU/L | TERMINAL_BW (24 h): 228.1 g | APTT (24 h): 17.1 s | Bas (24 h): 0% | Eos (24 h): 1% | Fbg (24 h): 291 mg/dL | Hb (24 h): 14 g/dL | Ht (24 h): 41.9% | Lym (24 h): 76% | MCH (24 h): 21.5 pg | MCHC (24 h): 33.4% | MCV (24 h): 64.3 fL | Mono (24 h): 2.2% | Neu (24 h): 19.8% | PT (24 h): 13.7 s | Plat (24 h): 120.8 x10_4/uL | RBC (24 h): 652 x10_4/ul | Ret (24 h): 6.9% | WBC (24 h): 78.2 x10_2/uL | KIDNEY_L (24 h): 1 g | KIDNEY_R (24 h): 1 g | KIDNEY_TOTAL (24 h): 2 g | LIVER (24 h): 10.9 g | A/G (24 h): 0.9 | ALP (24 h): 1674.6 IU/L | ALT (24 h): 47.4 IU/L | AST (24 h): 72.2 IU/L | BUN (24 h): 15 mg/dL | CRE (24 h): 0.2 mg/dL | Ca (24 h): 11.2 mg/dL | Cl (24 h): 104.2 meq/L | DBIL (24 h): 0.01 mg/dL | GLC (24 h): 188.6 mg/dL | IP (24 h): 8.2 mg/dL | K (24 h): 4.2 meq/L | LDH (24 h): 72.4 IU/L | Na (24 h): 142.6 meq/L | PL (24 h): 158.6 mg/dL | RALB (24 h): 2.7 g/dL | TBIL (24 h): 0.044 mg/dL | TC (24 h): 80.2 mg/dL | TG (24 h): 109.8 mg/dL | TP (24 h): 5.5 g/dL | gamma-GTP (24 h): 1 IU/L
